Test results taken from PubChem BioAssay AID504461 (NMMLSC, 2011).
Active and inactive are the calls of the source.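 How the source made its calls: active means compounds whose fitted half-effect concentration on CIT2 GFP level is 33 micromolar or lower; inactive means the rest.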

Experiments:
[1] = test system: S. cerevisiae CIT2-GFP strain, flow cytometry GFP, 3 h; test: CIT2-GFP expression modulators in yeast, SAR follow-up, flow cytometry, KU set 2, dose response (AID 504461)
[2] = as above; conditions: S. cerevisiae CIT2-GFP strain, flow cytometry GFP, 3 h

SMILES	GFP fluorescence (kMESF) ([2]; at 100 µM (top of the series))	GFP fluorescence (kMESF) ([2]; at 300 µM (top of the series))	further results
CNc1nc(N)c(C(=O)c2ccc(C)c(C)c2)c(Nc2cccc(Cl)c2)n1			EC50 [1]: 129 µM (inactive)
CCNc1nc(NC2CCCCC2)c([N+](=O)[O-])c(N2CCOCC2)n1	3.39 kMESF (inactive)		
CNc1nc(N)c([N+](=O)[O-])c(Nc2ccccc2Br)n1	3.6 kMESF (inactive)		
COc1cccc(-c2cc(Nc3cc(C)[nH]n3)nc(NCc3ccccc3)n2)c1		4.64 kMESF (inactive)	
Cc1cc(Nc2cc(-c3ccccc3)nc(NCc3ccccc3)n2)n[nH]1		4.23 kMESF (inactive)	
COc1ccccc1-c1cc(Nc2cc(C)[nH]n2)nc(NCc2ccccc2)n1		4.5 kMESF (inactive)	
CCNc1nc(N)c([N+](=O)[O-])c(Nc2cccc(Cl)c2)n1			EC50 [1]: 73.5 µM (inactive)
O=[N+]([O-])c1c(NC2CCCCC2)nc(NCc2ccccc2)nc1N1CCOCC1		4.5 kMESF (inactive)	
COC(=O)c1cccc(-c2cc(Nc3cc(C)[nH]n3)nc(NCc3ccccc3)n2)c1		4.85 kMESF (inactive)	
CCOC(=O)c1c(N)nc(NC)nc1Nc1cccc(F)c1		5.12 kMESF (inactive)	
CNc1nc(N)c([N+](=O)[O-])c(Nc2ccccc2F)n1	4.24 kMESF (inactive)		
CNc1nc(N)c([N+](=O)[O-])c(Nc2cccc(Oc3ccccc3)c2)n1	3.53 kMESF (inactive)		
CNc1nc(NC2CCCCC2)c([N+](=O)[O-])c(N2CCOCC2)n1	3.39 kMESF (inactive)		
CNc1nc(N)cc(Nc2ccccc2F)n1		5.53 kMESF (inactive)	
CNc1nc(N)c([N+](=O)[O-])c(Nc2cccc(Br)c2)n1	5.3 kMESF (inactive)		
CNc1nc(N)cc(Nc2cccc(Cl)c2)n1		4.78 kMESF (inactive)	
CNc1nc(N)cc(Oc2cccc(Cl)c2)n1		3.55 kMESF (inactive)	
CNc1nc(NC)c([N+](=O)[O-])c(Nc2cccc(Cl)c2)n1	3.32 kMESF (inactive)		
Cc1cc(Nc2cc(Nc3ccccc3)nc(NCc3ccccc3)n2)n[nH]1		4.57 kMESF (inactive)	
CNc1nc(N)c([N+](=O)[O-])c(Nc2cccc(OC)c2)n1	5.3 kMESF (inactive)		
